Assay results from patent US10954232B2, “Pyrazole derivative as ALK5 inhibitor and uses thereof” (HANMI PHARMACEUTICAL CO., LTD., priority 2016, dated 2021).

Target: T1, ALK5 kinase (Homo sapiens, UniProt P36897)
T1 construct: GST; purchased Thermo Fisher Scientific Solutions
T1 sequence (P36897 34-503): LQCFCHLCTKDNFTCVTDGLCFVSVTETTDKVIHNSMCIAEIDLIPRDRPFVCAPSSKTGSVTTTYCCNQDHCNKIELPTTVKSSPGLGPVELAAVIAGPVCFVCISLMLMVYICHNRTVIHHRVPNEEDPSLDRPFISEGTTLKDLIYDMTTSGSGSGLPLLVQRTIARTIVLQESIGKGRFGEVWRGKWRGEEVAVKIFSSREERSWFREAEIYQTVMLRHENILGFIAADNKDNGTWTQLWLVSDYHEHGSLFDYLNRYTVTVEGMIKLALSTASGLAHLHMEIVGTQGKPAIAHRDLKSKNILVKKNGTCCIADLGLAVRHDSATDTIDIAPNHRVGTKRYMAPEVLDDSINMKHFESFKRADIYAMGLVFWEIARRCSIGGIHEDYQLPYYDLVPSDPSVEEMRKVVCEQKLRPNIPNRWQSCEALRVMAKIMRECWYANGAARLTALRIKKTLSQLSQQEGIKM
Experiment: Activity inhibition test on ALK5 enzyme (LanthaScreen Eu binding kinase assay)
Conditions: kinase tracer 178, 60 minutes at room temperature
Method in brief: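 TR-FRET tracer-displacement format with final 5 nM ALK5, 2 nM Eu-GST antibody and 10 nM kinase tracer 178. Compound dilution series ran 1 μM–0.0001 μM, incubated 60 min at room temperature with stirring. Fluorescence was read ([…]), and IC50 came from percent inhibition versus control.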

IC50 | SMILES
10 to 100 nM | Cc1cccc(-n2nc(C(=O)Nc3ccc(OC(F)(F)F)cc3)cc2-c2ccc3ncnn3c2)n1 [Example 101, 5-([1,2,4]triazolo[1,5-α]pyridin-6-yl)-1-(6-methylpyridin-2-yl)-N-(4-(trifluoromethoxy)phenyl)-1H-pyrazole-3-carboxyamide]
10 to 100 nM | Cc1cccc(-n2nc(C(=O)Nc3cccc(N(C)C)c3)cc2-c2ccc3ncnn3c2)n1 [Example 102, 5-([1,2,4]triazolo[1,5-α]pyridin-6-yl)-N-(3-(dimethylamino)phenyl)-1-(6-methylpyridin-2-yl)-1H-pyrazole-3-carboxyamide]
9.1 nM | Cc1cccc(-n2nc(C(=O)Nc3ccc(N)cc3)cc2-c2ccc3ncnn3c2)n1 [Example 103, 5-([1,2,4]triazolo[1,5-α]pyridin-6-yl)-N-(4-aminophenyl)-1-(6-methylpyridin-2-yl)-1H-pyrazole-3-carboxyamide]
7 nM | Cc1cccc(-n2nc(C(=O)Nc3ccc(N(C)C)cc3)cc2-c2ccc3ncnn3c2)n1 [Example 104, 5-([1,2,4]triazolo[1,5-α]pyridin-6-yl)-N-(4-(dimethylamino)phenyl)-1-(6-methylpyridin-2-yl)-1-H-pyrazole-3-carboxyamide]
7 nM | Cc1cccc(-n2nc(C(=O)Nc3ccc(N4CCCC4)cc3)cc2-c2ccc3ncnn3c2)n1 [Example 105, 5-([1,2,4]triazolo[1,5-α]pyridin-6-yl)-N-(4-(pyrrolidin-1-yl)phenyl)-1-(6-methylpyridin-2-yl)-1H-pyrazole-3-carboxyamide]
14 nM | Cc1cccc(-n2nc(C(=O)Nc3ccc(N(C)CCN(C)C)cc3)cc2-c2ccc3ncnn3c2)n1 [Example 106, 5-([1,2,4]triazolo[1,5-α]pyridin-6-yl)-N-(4-((2-(dimethylamino)ethyl)(methyl)amino)phenyl)-1-(6-methylpyridin-2-yl)-1H-pyrazole-3-carboxyamide]
10 to 100 nM | Cc1cccc(-n2nc(C(=O)Nc3ccc(N4CCN(C)CC4)cc3)cc2-c2ccc3ncnn3c2)n1 [Example 107, 5-([1,2,4]triazolo[1,5-α]pyridin-6-yl)-N-(4-(4-methylpiperazin-1-yl)phenyl)-1-(6-methylpyridin-2-yl)-1H-pyrazole-3-carboxyamide]
~10 nM | CC(=O)N1CCN(c2ccc(NC(=O)c3cc(-c4ccc5ncnn5c4)n(-c4cccc(C)n4)n3)cc2)CC1 [Example 108, 5-([1,2,4]triazolo[1,5-α]pyridin-6-yl)-N-(4-(4-acetylpiperazin-1-yl)phenyl)-1-(6-methylpyridin-2-yl)-1H-pyrazole-3-carboxyamide]
10 to 100 nM | CC(=O)Nc1ccc(NC(=O)c2cc(-c3ccc4ncnn4c3)n(-c3cccc(C)n3)n2)cc1 [Example 110, 5-([1,2,4]triazolo[1,5-α]pyridin-6-yl)-N-(4-acetamidophenyl)-1-(6-methylpyridin-2-yl)-1H-pyrazole-3-carboxyamide]
> 100 nM | Cc1cccc(-n2nc(C(=O)Nc3ccc(CN(C)C)cc3)cc2-c2ccc3ncnn3c2)n1 [Example 111, 5-([1,2,4]triazolo[1,5-α]pyridin-6-yl)-N-(4-((dimethylamino)methyl)phenyl)-1-(6-methylpyridin-2-yl)-1H-pyrazole-3-carboxyamide]
10 to 100 nM | CNC(=O)c1ccccc1NC(=O)c1cc(-c2ccc3ncnn3c2)n(-c2cccc(C)n2)n1 [Example 112, 5-([1,2,4]triazolo[1,5-α]pyridin-6-yl)-N-(2-(methylcarbamoyl)phenyl)-1-(6-methylpyridin-2-yl)-1H-pyrazole-3-carboxyamide]
10 to 100 nM | CNC(=O)c1ccc(NC(=O)c2cc(-c3ccc4ncnn4c3)n(-c3cccc(C)n3)n2)cc1 [Example 113, 5-([1,2,4]triazolo[1,5-α]pyridin-6-yl)-N-(4-(methylcarbamoyl)phenyl)-1-(6-methylpyridin-2-yl)-1H-pyrazole-3-carboxyamide]
9.5 nM | Cc1cccc(-n2nc(C(=O)Nc3ccccc3)cc2-c2ccc3ncnn3c2)n1 [Example 114, 5-([1,2,4]triazolo[1,5-α]pyridin-6-yl)-1-(6-methylpyridin-2-yl)-N-phenyl-1H-pyrazole-3-carboxyamide]
10 to 100 nM | Cc1cccc(-n2nc(C(=O)Nc3ccccc3C)cc2-c2ccc3ncnn3c2)n1 [Example 115, 5-([1,2,4]triazolo[1,5-α]pyridin-6-yl)-1-(6-methylpyridin-2-yl)-N-(o-tolyl)-1H-pyrazole-3-carboxyamide]
~10 nM | Cc1cccc(NC(=O)c2cc(-c3ccc4ncnn4c3)n(-c3cccc(C)n3)n2)c1 [Example 116, 5-([1,2,4]triazolo[1,5-α]pyridin-6-yl)-1-(6-methylpyridin-2-yl)-N-(m-tolyl)-1H-pyrazole-3-carboxyamide]
10 to 100 nM | Cc1ccc(NC(=O)c2cc(-c3ccc4ncnn4c3)n(-c3cccc(C)n3)n2)cc1 [Example 117, 5-([1,2,4]triazolo[1,5-α]pyridin-6-yl)-1-(6-methylpyridin-2-yl)-N-(p-tolyl)-1H-pyrazole-3-carboxyamide]
10 to 100 nM | Cc1cccc(-n2nc(C(=O)Nc3cccc(C(F)(F)F)c3)cc2-c2ccc3ncnn3c2)n1 [Example 118, 5-([1,2,4]triazolo[1,5-α]pyridin-6-yl)-1-(6-methylpyridin-2-yl)-N-(3-(trifluoromethyl)phenyl)-1H-pyrazole-3-carboxyamide]
< 10 nM | C=Cc1ccc(NC(=O)c2cc(-c3ccc4ncnn4c3)n(-c3cccc(C)n3)n2)cc1 [Example 119, 5-([1,2,4]triazolo[1,5-α]pyridin-6-yl)-1-(6-methylpyridin-2-yl)-N-(4-vinylphenyl)-1H-pyrazole-3-carboxyamide]
10 to 100 nM | Cc1cccc(-n2nc(C(=O)Nc3cccc(C#N)c3)cc2-c2ccc3ncnn3c2)n1 [Example 120, 5-([1,2,4]triazolo[1,5-α]pyridin-6-yl)-N-(3-cyanophenyl)-1-(6-methylpyridin-2-yl)-1H-pyrazole-3-carboxyamide]
10 to 100 nM | Cc1cccc(-n2nc(C(=O)Nc3ccc(C#N)cc3)cc2-c2ccc3ncnn3c2)n1 [Example 121, 5-([1,2,4]triazolo[1,5-α]pyridin-6-yl)-N-(4-cyanophenyl)-1-(6-methylpyridin-2-yl)-1-H-pyrazole-3-carboxyamide]
10 to 100 nM | CC(=O)c1cccc(NC(=O)c2cc(-c3ccc4ncnn4c3)n(-c3cccc(C)n3)n2)c1 [Example 122, 5-([1,2,4]triazolo[1,5-α]pyridin-6-yl)-N-(3-acetylphenyl)-1-(6-methylpyridin-2-yl)-1H-pyrazole-3-carboxyamide]
10 to 100 nM | CC(=O)c1ccc(NC(=O)c2cc(-c3ccc4ncnn4c3)n(-c3cccc(C)n3)n2)cc1 [Example 123, 5-([1,2,4]triazolo[1,5-α]pyridin-6-yl)-N-(4-acetylphenyl)-1-(6-methylpyridin-2-yl)-1H-pyrazole-3-carboxyamide]
31 nM | Cc1cccc(-n2nc(C(=O)Nc3ccccc3F)cc2-c2ccc3ncnn3c2)n1 [Example 124, 5-([1,2,4]triazolo[1,5-α]pyridin-6-yl)-N-(2-fluorophenyl)-1-(6-methylpyridin-2-yl)-1H-pyrazole-3-carboxyamide]
10 to 100 nM | Cc1cccc(-n2nc(C(=O)Nc3cccc(F)c3)cc2-c2ccc3ncnn3c2)n1 [Example 125, 5-([1,2,4]triazolo[1,5-α]pyridin-6-yl)-N-(3-fluorophenyl)-1-(6-methylpyridin-2-yl)-1H-pyrazole-3-carboxyamide]
